Source: ChEMBL document CHEMBL5241136, “Design, synthesis and evaluation of heterocyclic 2-phenylacetate derivatives as water-soluble rapid recovery hypnotics” (Bioorg Med Chem Lett, 2023)

Test system: not listed separately
Test: n-Octanol/water partition coefficient, logP of the compound
Type: physicochemical
Settings: n-octanol/water; read-out: logP

Row | logP | SMILES
1 | 1.8 | COc1cc(CC(=O)OC(C)C)ccc1OCC(=O)N1CCNCC1
2 | 1.5 | CCOc1cc(CC(=O)OC(C)C)ccc1OCC(=O)N1CCNCC1
3 | 1.7 | CCCOC(=O)Cc1ccc(OCC(=O)N2CCNCC2)c(OC)c1
4 | 2.3 | CCCOC(=O)Cc1ccc(OCC(=O)N2CCCC2)c(OCC)c1
5 | 2 | CCOC(=O)Cc1ccc(OCC(=O)N2CCNCC2)c(OCC)c1
6 | 1.8 | CCCOC(=O)Cc1ccc(OCC(=O)N2CCCC2)c(OC)c1
7 | 1.9 | COc1cc(CC(=O)OC(C)C)ccc1OCC(=O)N1CCCC1

Row | SMILES | logP
8 | CCOC(=O)Cc1ccc(OCC(=O)N2CCN(C(=O)OC(C)(C)C)CC2)c(OCC)c1 | 1.8
9 | COc1cc(CC(=O)OC(C)C)ccc1OCC(=O)N1CCOCC1 | 1.3
10 | CCOc1cc(CC(=O)OC(C)C)ccc1OCC(=O)N1CCN(C(=O)OC(C)(C)C)CC1 | 2.1
11 | COc1cc(CC(=O)OC(C)C)ccc1OCC(=O)N1CCN(C(=O)OC(C)(C)C)CC1 | 1.8
12 | CCCOC(=O)Cc1ccc(OCC(=O)N2CCN(C(=O)OC(C)(C)C)CC2)c(OC)c1 | 1.9
13 | CCCOC(=O)Cc1ccc(OCC(=O)N2CCOCC2)c(OC)c1 | 1.5

Same assay, conditions: octanol/water

Row | logP | SMILES
14 | 2.1 | CCOC(=O)Cc1cc(OCC)c(OCC(=O)N(CC)CC)cc1F

Test system: not listed separately
Test: Toxicity in mouse assessed as lethal dose
Settings: in vivo

Row | SMILES | LD50 [mg/kg]
15 | CCOC(=O)Cc1ccc(OCC(=O)N2CCN(C(=O)OC(C)(C)C)CC2)c(OCC)c1 | 217
16 | COc1cc(CC(=O)OC(C)C)ccc1OCC(=O)N1CCOCC1 | 276
17 | CCOc1cc(CC(=O)OC(C)C)ccc1OCC(=O)N1CCN(C(=O)OC(C)(C)C)CC1 | 258
18 | COc1cc(CC(=O)OC(C)C)ccc1OCC(=O)N1CCN(C(=O)OC(C)(C)C)CC1 | 264
19 | CCCOC(=O)Cc1ccc(OCC(=O)N2CCN(C(=O)OC(C)(C)C)CC2)c(OC)c1 | 340
20 | CCCOC(=O)Cc1ccc(OCC(=O)N2CCOCC2)c(OC)c1 | 339

Test system: Mus musculus
Test: Anesthetic activity in mouse assessed as concentration required to induce hypnotic effect
Type: functional
Settings: not given

Row | SMILES | ED50 [mg/kg]
21 | COc1cc(CC(=O)OC(C)C)ccc1OCC(=O)N1CCNCC1 | > 100
22 | CCOc1cc(CC(=O)OC(C)C)ccc1OCC(=O)N1CCNCC1 | > 100
23 | CCCOC(=O)Cc1ccc(OCC(=O)N2CCNCC2)c(OC)c1 | > 100
24 | CCOC(=O)Cc1ccc(OCC(=O)N2CCN(C(=O)OC(C)(C)C)CC2)c(OCC)c1 | 30.6
25 | COc1cc(CC(=O)OC(C)C)ccc1OCC(=O)N1CCOCC1 | 46.8
26 | CCCOC(=O)Cc1ccc(OCC(=O)N2CCCC2)c(OCC)c1 | 60.8
27 | CCOC(=O)Cc1ccc(OCC(=O)N2CCNCC2)c(OCC)c1 | > 100
28 | CCOc1cc(CC(=O)OC(C)C)ccc1OCC(=O)N1CCN(C(=O)OC(C)(C)C)CC1 | 36.8
29 | COc1cc(CC(=O)OC(C)C)ccc1OCC(=O)N1CCN(C(=O)OC(C)(C)C)CC1 | 38.2
30 | CCCOC(=O)Cc1ccc(OCC(=O)N2CCN(C(=O)OC(C)(C)C)CC2)c(OC)c1 | 43.6
31 | CCCOC(=O)Cc1ccc(OCC(=O)N2CCOCC2)c(OC)c1 | 52.9
32 | CCCOC(=O)Cc1ccc(OCC(=O)N2CCCC2)c(OC)c1 | 64.2
33 | COc1cc(CC(=O)OC(C)C)ccc1OCC(=O)N1CCCC1 | 59.9

Test system: not listed separately
Test: Therapeutic index, ratio of LD50 for toxicity in mouse to HD50 for anesthetic activity in mouse assessed as concentration required to induce hypnotic effect
Settings: read-out: TI

Row | SMILES | selectivity ratio
34 | CCOC(=O)Cc1ccc(OCC(=O)N2CCN(C(=O)OC(C)(C)C)CC2)c(OCC)c1 | 7.1
35 | COc1cc(CC(=O)OC(C)C)ccc1OCC(=O)N1CCOCC1 | 5.9
36 | CCOc1cc(CC(=O)OC(C)C)ccc1OCC(=O)N1CCN(C(=O)OC(C)(C)C)CC1 | 7
37 | COc1cc(CC(=O)OC(C)C)ccc1OCC(=O)N1CCN(C(=O)OC(C)(C)C)CC1 | 6.9
38 | CCCOC(=O)Cc1ccc(OCC(=O)N2CCN(C(=O)OC(C)(C)C)CC2)c(OC)c1 | 7.8
39 | CCCOC(=O)Cc1ccc(OCC(=O)N2CCOCC2)c(OC)c1 | 6.4

Target: GABA-A receptor; anion channel (Homo sapiens) (UniProt P14867+P47870+P18507+P28472+P48169+Q99928+Q9UN88+P34903+O00591+O14764+Q8N1C3+P18505+P78334+P47869+P31644+Q16445)
Test: Inhibition of GABAA receptor (unknown origin) at 50 uM by radioligand receptor binding assay relative to control
Type: protein-complex assay
Settings: not given

Row | inhibition [%] | SMILES
40 | 57.8 | COc1cc(CC(=O)OC(C)C)ccc1OCC(=O)N1CCNCC1
41 | 36.4 | CCOc1cc(CC(=O)OC(C)C)ccc1OCC(=O)N1CCNCC1
42 | 38.6 | CCCOC(=O)Cc1ccc(OCC(=O)N2CCNCC2)c(OC)c1
43 | 47.8 | CCCOC(=O)Cc1ccc(OCC(=O)N2CCCC2)c(OCC)c1
44 | 65.2 | CCOC(=O)Cc1ccc(OCC(=O)N2CCNCC2)c(OCC)c1
45 | 72.5 | CCCOC(=O)Cc1ccc(OCC(=O)N2CCCC2)c(OC)c1
46 | 55.6 | COc1cc(CC(=O)OC(C)C)ccc1OCC(=O)N1CCCC1

Row | SMILES | inhibition [%]
47 | CCOC(=O)Cc1ccc(OCC(=O)N2CCN(C(=O)OC(C)(C)C)CC2)c(OCC)c1 | 45.2
48 | COc1cc(CC(=O)OC(C)C)ccc1OCC(=O)N1CCOCC1 | 35.7
49 | CCOc1cc(CC(=O)OC(C)C)ccc1OCC(=O)N1CCN(C(=O)OC(C)(C)C)CC1 | 29.3
50 | COc1cc(CC(=O)OC(C)C)ccc1OCC(=O)N1CCN(C(=O)OC(C)(C)C)CC1 | 69.7
51 | CCCOC(=O)Cc1ccc(OCC(=O)N2CCN(C(=O)OC(C)(C)C)CC2)c(OC)c1 | 36.1
52 | CCCOC(=O)Cc1ccc(OCC(=O)N2CCOCC2)c(OC)c1 | 46.3
